In US11214594B2, “Antimicrobial peptide having synergistic antibacterial effect with antibiotics on multidrug resistant bacteria, and use thereof” (priority 2016, dated 2022):
≈ marks a conversion by molar mass, not a printed value. Where two headings read alike, the source gives them in different places. Where a SMILES comes first, the peptide text is derived from it. [ ]: non-standard residue; d: D form.

Columns and labels:
[1] = system: MDRST 8007; experiment: Minimal inhibitory concentration (MIC), single agent; type: cell-based, Salmonella typhimurium; conditions: agent alone
Procedure, shortened: (§1)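 Broth microdilution in MH medium: strains diluted to 2×10^6 CFU were mixed with equal volumes of twofold serial peptide dilutions in MH medium. MIC was taken as the lowest peptide concentration preventing bacterial growth.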

[2] = system: E. coli; experiment: microbe, parasite or virus in culture; type: cell-based, Escherichia coli; conditions: 16 h
Procedure, shortened: as §1

[3] = system: MDREC 1229; experiment: microbe, parasite or virus in culture; type: cell-based, Escherichia coli; conditions: MDREC 1229
Procedure, shortened: as §1

[4] = system: A. baumannii; experiment: MIC of antimicrobial peptide during combined treatment with antibiotic; type: cell-based, Acinetobacter baumannii
Procedure, shortened: (§2)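 Strains in MH medium at 2×10^6 CFU/ml were mixed with peptide diluted stepwise (2:1) from its MIC, then antibiotic dilutions in MH medium were added to give the antibiotic MIC. The reversed set-up, peptide titrated against fixed antibiotic, gave the peptide MIC.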

[5] = system: MDRAB 12035; experiment: as above; type: cell-based, Acinetobacter baumannii
Procedure, shortened: as §2

[6] = system: B. subtilis; experiment: microbe, parasite or virus in culture; type: cell-based, Bacillus subtilis
Procedure, shortened: as §1

[7] = system: S. aureus; experiment: microbe, parasite or virus in culture; type: cell-based, Staphylococcus aureus
Procedure, shortened: as §1

[8] = system: E. coli; type: cell-based, Escherichia coli; conditions: E. coli
Procedure, shortened: as §2

[9] = system: MDREC 1229; type: cell-based, Escherichia coli
Procedure, shortened: as §2

[10] = system: MDRAB 12036; type: cell-based, Acinetobacter baumannii; conditions: MDRAB 12036; agent alone
Procedure, shortened: as §1

[11] = system: E. coli; experiment: MIC of antibiotic during combined treatment with antimicrobial peptide; type: cell-based, Escherichia coli; conditions: for Antibiotic MIC, Erythromycin: E. coli
Procedure, shortened: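 Checkerboard-type MIC of peptide–antibiotic mixtures in MH medium: the antibiotic was serially diluted in MH medium and added to wells, then the reversed arrangement was also tested.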

[12] = erythromycin 4 μg/ml (Conc./MIC 1/8)
[13] = erythromycin 8 μg/ml (Conc./MIC 1/4)
[14] = erythromycin 16 μg/ml (Conc./MIC 1/2)
[15] = erythromycin 32 μg/ml (Conc./MIC 1)
[16] = vancomycin 512 μg/ml (Conc./MIC 1/2)
[17] = vancomycin 1024 μg/ml (Conc./MIC 1)
[18] = linezolid 64 μg/ml (Conc./MIC 1/8)
[19] = linezolid 512 μg/ml (Conc./MIC 1)

## CC[C@H](C)[C@H](NC(=O)[C@H](CCCCN)NC(=O)[C@H](Cc1c[nH]c2ccccc12)NC(=O)[C@@H](N)CCCNC(=N)N)C(=O)N[C@@H](Cc1ccccc1)C(=O)N[C@@H](CCCCN)C(=O)N[C@@H](CCCCN)C(=O)N[C@H](C(=O)N[C@H](CC(C)C)C(=O)N[C@@H](CCCCN)C(=O)N[C@@H](CC(C)C)C(=O)N[C@@H](CC(C)C)C(=O)N[C@@H](Cc1c[nH]cn1)C(=O)N[C@@H](CCCCN)C(=O)N[C@@H](Cc1ccccc1)C(=O)N[C@@H](CCCCN)C(=O)N[C@@H](CCCCN)C(=O)N[C@@H](Cc1ccccc1)C(N)=O)[C@@H](C)CC [PapMA-21, RWK IFK KIl KLL HKF KKF-NH2] (H-RWKIFKKI[dL]KLLHKFKKF-NH2; N-terminus assumed)
[1]
  Minimal inhibitory concentration MIC: 64 µg/mL (≈ 26.7 µM)
[2]
  Minimal inhibitory concentration MIC: 32 µg/mL (≈ 13.3 µM)
[3]; agent alone
  Minimal inhibitory concentration MIC: 32 µg/mL (≈ 13.3 µM)
[3]; peptide alone, no antibiotic
  Peptide MIC, peptide alone: 32 µg/mL
[4]; [12]
  Peptide MIC during treatment with erythromycin: 8 µg/mL
[4]; [13]
  Peptide MIC during treatment with erythromycin: 4 µg/mL
[4]; [14]
  Peptide MIC during treatment with erythromycin: 2 µg/mL
[4]; [15]
  Peptide MIC during treatment with erythromycin: 0 µg/mL
[4]; linezolid 32 μg/ml (Conc./MIC 1/8)
  Peptide MIC during treatment with linezolid: 4 µg/mL
[4]; linezolid 64 μg/ml (Conc./MIC 1/4)
  Peptide MIC during treatment with linezolid: 4 µg/mL
[4]; linezolid […] (Conc./MIC 1)
  Peptide MIC during treatment with linezolid: 0 µg/mL
[4]; linezolid […] (Conc./MIC 1/2)
  Peptide MIC during treatment with linezolid: 1 µg/mL
[4]; [16]
  Peptide MIC during treatment with vancomycin: 0.25 µg/mL
[4]; [17]
  Peptide MIC during treatment with vancomycin: 0 µg/mL
[4]; vancomycin […] (Conc./MIC 1/4)
  Peptide MIC during treatment with vancomycin: 0.5 µg/mL
[4]; vancomycin […] (Conc./MIC 1/8)
  Peptide MIC during treatment with vancomycin: 4 µg/mL
[5]; [12]
  Peptide MIC during treatment with erythromycin: 8 µg/mL
[5]; [13]
  Peptide MIC during treatment with erythromycin: 8 µg/mL
[5]; [14]
  Peptide MIC during treatment with erythromycin: 4 µg/mL
[5]; [15]
  Peptide MIC during treatment with erythromycin: 0 µg/mL
[5]; [18]
  Peptide MIC during treatment with linezolid: 4 µg/mL
[5]; [19]
  Peptide MIC during treatment with linezolid: 0 µg/mL
[5]; linezolid […] (Conc./MIC 1/2)
  Peptide MIC during treatment with linezolid: 1 µg/mL
[5]; linezolid […] (Conc./MIC 1/4)
  Peptide MIC during treatment with linezolid: 4 µg/mL
[5]; [16]
  Peptide MIC during treatment with vancomycin: 2 µg/mL
[5]; [17]
  Peptide MIC during treatment with vancomycin: 1 µg/mL
[5]; vancomycin […] (Conc./MIC 1/4)
  Peptide MIC during treatment with vancomycin: 4 µg/mL
[5]; vancomycin […] (Conc./MIC 1/8)
  Peptide MIC during treatment with vancomycin: 4 µg/mL
[6]
  Minimal inhibitory concentration MIC: >128 µg/mL
[7]
  Minimal inhibitory concentration MIC: >128 µg/mL
[8]; with Erythromycin 16 μg/ml (Conc./MIC 1/8)
  Peptide MIC: 4 µg/mL
[8]; with Erythromycin 32 μg/ml (Conc./MIC 1/4)
  Peptide MIC: 2 µg/mL
[8]; with Erythromycin 64 μg/ml (Conc./MIC 1/2)
  Peptide MIC: 1 µg/mL
[8]; with Erythromycin […] (Conc./MIC 1)
  Peptide MIC: 0 µg/mL
[8]; with Linezolid 32 μg/ml (Conc./MIC 1/8)
  Peptide MIC: 8 µg/mL
[8]; with Linezolid 64 μg/ml (Conc./MIC 1/4)
  Peptide MIC: 4 µg/mL
[8]; with Linezolid […] (Conc./MIC 1)
  Peptide MIC: 0 µg/mL
[8]; with Linezolid […] (Conc./MIC 1/2)
  Peptide MIC: 2 µg/mL
[8]; with Vancomycin 512 μg/ml (Conc./MIC 1/2)
  Peptide MIC: 2 µg/mL
[8]; with Vancomycin 1024 μg/ml (Conc./MIC 1)
  Peptide MIC: 0 µg/mL
[8]; with Vancomycin […] (Conc./MIC 1/4)
  Peptide MIC: 4 µg/mL
[8]; with Vancomycin […] (Conc./MIC 1/8)
  Peptide MIC: 8 µg/mL
[9]; erythromycin 32 μg/ml (Conc./MIC 1/8)
  Peptide MIC during treatment with antibiotic: 2 µg/mL
[9]; erythromycin 64 μg/ml (Conc./MIC 1/4)
  Peptide MIC during treatment with antibiotic: 2 µg/mL
[9]; erythromycin […] (Conc./MIC 1)
  Peptide MIC during treatment with antibiotic: 0 µg/mL
[9]; erythromycin […] (Conc./MIC 1/2)
  Peptide MIC during treatment with antibiotic: 1 µg/mL
[9]; [18]
  Peptide MIC during treatment with antibiotic: 8 µg/mL
[9]; [19]
  Peptide MIC during treatment with antibiotic: 0 µg/mL
[9]; linezolid […] (Conc./MIC 1/2)
  Peptide MIC during treatment with antibiotic: 1 µg/mL
[9]; linezolid […] (Conc./MIC 1/4)
  Peptide MIC during treatment with antibiotic: 4 µg/mL
[9]; [16]
  Peptide MIC during treatment with antibiotic: 2 µg/mL
[9]; [17]
  Peptide MIC during treatment with antibiotic: 2 µg/mL
[9]; vancomycin […] (Conc./MIC 1/4)
  Peptide MIC during treatment with antibiotic: 4 µg/mL
[9]; vancomycin […] (Conc./MIC 1/8)
  Peptide MIC during treatment with antibiotic: 8 µg/mL
[10]
  Minimal inhibitory concentration MIC: 32 µg/mL (≈ 13.3 µM)
[11]; E. coli and MDREC1229
  Synergistic effect of antibacterial activity with existing antibiotics compared with PapMA-1: level similar to that of the PapMA-1 peptide
[11]; erythromycin combined with peptide at 1 μg/ml
  Antibiotic MIC, Erythromycin: 64 µg/mL
[11]; erythromycin combined with peptide at 2 μg/ml
  Antibiotic MIC, Erythromycin: 32 µg/mL
[11]; erythromycin combined with peptide at 4 μg/ml
  Antibiotic MIC, Erythromycin: 8 µg/mL
[11]; erythromycin combined with peptide at 6 μg/ml
  Antibiotic MIC, Erythromycin: 2 µg/mL
[11]; erythromycin combined with peptide at 8 μg/ml
  Antibiotic MIC, Erythromycin: 1 µg/mL
[11]; erythromycin combined with peptide at 16 μg/ml
  Antibiotic MIC, Erythromycin: 0.25 µg/mL
[11]; erythromycin combined with peptide at 32 μg/ml
  Antibiotic MIC, Erythromycin: 0 µg/mL
[11]; erythromycin combined with peptide at 64 μg/ml
  Antibiotic MIC, Erythromycin: 0 µg/mL
